System: Key Broadleaf Weed and Crop Species
Assay: Post-emergent Test II herbicidal activity (Table 5)
Format: in vivo
Settings: post-emergence, 336 h; ABUTH: velvetleaf (Abutilon theophrasti); application rate 70 g ai/ha; 14 days after application; read-out: Visual Growth Reduction (%) 14 Days After Application, ABUTH
Method in brief: (§1)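 Plants grown in Metro-Mix 360 (pH 6.0–6.8) in a greenhouse (~15 h photoperiod, 23–29 °C day) to first or second true leaf stage, then sprayed with compound in acetone/DMSO/aqueous crop-oil-surfactant carrier at 187 L/ha by track sprayer. Injury visually scored 0–100% versus untreated plants after 14 d.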

Compound	pest or weed control at 70 g/ha [%]
COC(=O)c1nc(-c2ccc(C#N)c(F)c2)c(F)c(N)c1Cl [Compound 135, methyl 4-amino-3-chloro-6-(4-cyano-3-fluorophenyl)-5-fluoropicolinate]	95 to 100

Same assay, conditions: post-emergence, 336 h; ABUTH: velvetleaf (Abutilon theophrasti); application rate 140 g ai/ha; 14 days after application; read-out: Visual Growth Reduction (%) 14 Days After Application, ABUTH

Compound	pest or weed control at 140 g/ha [%]
COC(=O)c1nc(-c2ccc(C#N)c(F)c2)c(F)c(N)c1Cl [Compound 135, methyl 4-amino-3-chloro-6-(4-cyano-3-fluorophenyl)-5-fluoropicolinate]	95 to 100

Same assay, conditions: post-emergence, 336 h; AMARE: redroot pigweed (Amaranthus retroflexus); application rate 70 g ai/ha; 14 days after application; read-out: Visual Growth Reduction (%) 14 Days After Application, AMARE

Compound	pest or weed control at 70 g/ha [%]
COC(=O)c1nc(-c2ccc(C#N)c(F)c2)c(F)c(N)c1Cl [Compound 135, methyl 4-amino-3-chloro-6-(4-cyano-3-fluorophenyl)-5-fluoropicolinate]	95 to 100

Same assay, conditions: post-emergence, 336 h; AMARE: redroot pigweed (Amaranthus retroflexus); application rate 140 g ai/ha; 14 days after application; read-out: Visual Growth Reduction (%) 14 Days After Application, AMARE

Compound	pest or weed control at 140 g/ha [%]
COC(=O)c1nc(-c2ccc(C#N)c(F)c2)c(F)c(N)c1Cl [Compound 135, methyl 4-amino-3-chloro-6-(4-cyano-3-fluorophenyl)-5-fluoropicolinate]	95 to 100

Same assay, conditions: post-emergence, 336 h; BRSNN: oilseed-rape, canola (Brassica napus); application rate 70 g ai/ha; 14 days after application; read-out: Visual Growth Reduction (%) 14 Days After Application, BRSNN

Compound	pest or weed control at 70 g/ha [%]
COC(=O)c1nc(-c2ccc(C#N)c(F)c2)c(F)c(N)c1Cl [Compound 135, methyl 4-amino-3-chloro-6-(4-cyano-3-fluorophenyl)-5-fluoropicolinate]	60 to 74

Same assay, conditions: post-emergence, 336 h; BRSNN: oilseed-rape, canola (Brassica napus); application rate 140 g ai/ha; 14 days after application; read-out: Visual Growth Reduction (%) 14 Days After Application, BRSNN

Compound	pest or weed control at 140 g/ha [%]
COC(=O)c1nc(-c2ccc(C#N)c(F)c2)c(F)c(N)c1Cl [Compound 135, methyl 4-amino-3-chloro-6-(4-cyano-3-fluorophenyl)-5-fluoropicolinate]	60 to 74

Same assay, conditions: post-emergence, 336 h; CHEAL: lambsquarters (Chenopodium album); application rate 70 g ai/ha; 14 days after application; read-out: Visual Growth Reduction (%) 14 Days After Application, CHEAL

Compound	pest or weed control at 70 g/ha [%]
COC(=O)c1nc(-c2ccc(C#N)c(F)c2)c(F)c(N)c1Cl [Compound 135, methyl 4-amino-3-chloro-6-(4-cyano-3-fluorophenyl)-5-fluoropicolinate]	95 to 100

Same assay, conditions: post-emergence, 336 h; CHEAL: lambsquarters (Chenopodium album); application rate 140 g ai/ha; 14 days after application; read-out: Visual Growth Reduction (%) 14 Days After Application, CHEAL

Compound	pest or weed control at 140 g/ha [%]
COC(=O)c1nc(-c2ccc(C#N)c(F)c2)c(F)c(N)c1Cl [Compound 135, methyl 4-amino-3-chloro-6-(4-cyano-3-fluorophenyl)-5-fluoropicolinate]	95 to 100

Same assay, conditions: post-emergence, 336 h; EPHHL: wild poinsettia (Euphorbia heterophylla); application rate 70 g ai/ha; 14 days after application; read-out: Visual Growth Reduction (%) 14 Days After Application, EPHHL

Compound	pest or weed control at 70 g/ha [%]
COC(=O)c1nc(-c2ccc(C#N)c(F)c2)c(F)c(N)c1Cl [Compound 135, methyl 4-amino-3-chloro-6-(4-cyano-3-fluorophenyl)-5-fluoropicolinate]	95 to 100

Same assay, conditions: post-emergence, 336 h; EPHHL: wild poinsettia (Euphorbia heterophylla); application rate 140 g ai/ha; 14 days after application; read-out: Visual Growth Reduction (%) 14 Days After Application, EPHHL

Compound	pest or weed control at 140 g/ha [%]
COC(=O)c1nc(-c2ccc(C#N)c(F)c2)c(F)c(N)c1Cl [Compound 135, methyl 4-amino-3-chloro-6-(4-cyano-3-fluorophenyl)-5-fluoropicolinate]	95 to 100

Same assay, conditions: post-emergence, 336 h; HELAN: sunflower (Helianthus annuus); application rate 70 g ai/ha; 14 days after application; read-out: Visual Growth Reduction (%) 14 Days After Application, HELAN

Compound	pest or weed control at 70 g/ha [%]
COC(=O)c1nc(-c2ccc(C#N)c(F)c2)c(F)c(N)c1Cl [Compound 135, methyl 4-amino-3-chloro-6-(4-cyano-3-fluorophenyl)-5-fluoropicolinate]	95 to 100

Same assay, conditions: post-emergence, 336 h; HELAN: sunflower (Helianthus annuus); application rate 140 g ai/ha; 14 days after application; read-out: Visual Growth Reduction (%) 14 Days After Application, HELAN

Compound	pest or weed control at 140 g/ha [%]
COC(=O)c1nc(-c2ccc(C#N)c(F)c2)c(F)c(N)c1Cl [Compound 135, methyl 4-amino-3-chloro-6-(4-cyano-3-fluorophenyl)-5-fluoropicolinate]	95 to 100

Same assay, conditions: post-emergence, 336 h; VIOTR: wild pansy (Viola tricolor); application rate 70 g ai/ha; 14 days after application; read-out: Visual Growth Reduction (%) 14 Days After Application, VIOTR

Compound	pest or weed control at 70 g/ha [%]
COC(=O)c1nc(-c2ccc(C#N)c(F)c2)c(F)c(N)c1Cl [Compound 135, methyl 4-amino-3-chloro-6-(4-cyano-3-fluorophenyl)-5-fluoropicolinate]	60 to 74

Same assay, conditions: post-emergence, 336 h; VIOTR: wild pansy (Viola tricolor); application rate 140 g ai/ha; 14 days after application; read-out: Visual Growth Reduction (%) 14 Days After Application, VIOTR

Compound	pest or weed control at 140 g/ha [%]
COC(=O)c1nc(-c2ccc(C#N)c(F)c2)c(F)c(N)c1Cl [Compound 135, methyl 4-amino-3-chloro-6-(4-cyano-3-fluorophenyl)-5-fluoropicolinate]	60 to 74

System: Key Grass and Sedge Weeds as well as Grass Crops
Assay: Post-emergent Test II herbicidal activity (Table 6)
Format: in vivo
Settings: post-emergence, 336 h, CYPES: yellow nutsedge (Cyperus esculentus), 70 g ai/ha, read-out: Visual Growth Reduction (%) 14 Days After Application, CYPES
Method in brief: as §1

Compound	pest or weed control at 70 g/ha [%]
COC(=O)c1nc(-c2ccc(C#N)c(F)c2)c(F)c(N)c1Cl [Compound 135, methyl 4-amino-3-chloro-6-(4-cyano-3-fluorophenyl)-5-fluoropicolinate]	85 to 94

Same assay, conditions: post-emergence, 336 h, CYPES: yellow nutsedge (Cyperus esculentus), 140 g ai/ha, read-out: Visual Growth Reduction (%) 14 Days After Application, CYPES

Compound	pest or weed control at 140 g/ha [%]
COC(=O)c1nc(-c2ccc(C#N)c(F)c2)c(F)c(N)c1Cl [Compound 135, methyl 4-amino-3-chloro-6-(4-cyano-3-fluorophenyl)-5-fluoropicolinate]	95 to 100

Same assay, conditions: post-emergence, 336 h, DIGSA: crabgrass (Digitaria sanguinalis), 70 g ai/ha, read-out: Visual Growth Reduction (%) 14 Days After Application, DIGSA

Compound	pest or weed control at 70 g/ha [%]
COC(=O)c1nc(-c2ccc(C#N)c(F)c2)c(F)c(N)c1Cl [Compound 135, methyl 4-amino-3-chloro-6-(4-cyano-3-fluorophenyl)-5-fluoropicolinate]	60 to 74

Same assay, conditions: post-emergence, 336 h, DIGSA: crabgrass (Digitaria sanguinalis), 140 g ai/ha, read-out: Visual Growth Reduction (%) 14 Days After Application, DIGSA

Compound	pest or weed control at 140 g/ha [%]
COC(=O)c1nc(-c2ccc(C#N)c(F)c2)c(F)c(N)c1Cl [Compound 135, methyl 4-amino-3-chloro-6-(4-cyano-3-fluorophenyl)-5-fluoropicolinate]	75 to 84

Same assay, conditions: post-emergence, 336 h, ECHCG: barnyardgrass (Echinochloa crus-galli), 70 g ai/ha, read-out: Visual Growth Reduction (%) 14 Days After Application, ECHCG

Compound	pest or weed control at 70 g/ha [%]
COC(=O)c1nc(-c2ccc(C#N)c(F)c2)c(F)c(N)c1Cl [Compound 135, methyl 4-amino-3-chloro-6-(4-cyano-3-fluorophenyl)-5-fluoropicolinate]	95 to 100

Same assay, conditions: post-emergence, 336 h, ECHCG: barnyardgrass (Echinochloa crus-galli), 140 g ai/ha, read-out: Visual Growth Reduction (%) 14 Days After Application, ECHCG

Compound	pest or weed control at 140 g/ha [%]
COC(=O)c1nc(-c2ccc(C#N)c(F)c2)c(F)c(N)c1Cl [Compound 135, methyl 4-amino-3-chloro-6-(4-cyano-3-fluorophenyl)-5-fluoropicolinate]	95 to 100

Same assay, conditions: post-emergence, 336 h, ORYSA: rice (Oryza sativa), crop, 70 g ai/ha, read-out: Visual Growth Reduction (%) 14 Days After Application, ORYSA

Compound	pest or weed control at 70 g/ha [%]
COC(=O)c1nc(-c2ccc(C#N)c(F)c2)c(F)c(N)c1Cl [Compound 135, methyl 4-amino-3-chloro-6-(4-cyano-3-fluorophenyl)-5-fluoropicolinate]	0 to 29

Same assay, conditions: post-emergence, 336 h, ORYSA: rice (Oryza sativa), crop, 140 g ai/ha, read-out: Visual Growth Reduction (%) 14 Days After Application, ORYSA

Compound	pest or weed control at 140 g/ha [%]
COC(=O)c1nc(-c2ccc(C#N)c(F)c2)c(F)c(N)c1Cl [Compound 135, methyl 4-amino-3-chloro-6-(4-cyano-3-fluorophenyl)-5-fluoropicolinate]	0 to 29

Same assay, conditions: post-emergence, 336 h, SETFA: giant foxtail (Setaria faberi), 70 g ai/ha, read-out: Visual Growth Reduction (%) 14 Days After Application, SETFA

Compound	pest or weed control at 70 g/ha [%]
COC(=O)c1nc(-c2ccc(C#N)c(F)c2)c(F)c(N)c1Cl [Compound 135, methyl 4-amino-3-chloro-6-(4-cyano-3-fluorophenyl)-5-fluoropicolinate]	60 to 74

Same assay, conditions: post-emergence, 336 h, SETFA: giant foxtail (Setaria faberi), 140 g ai/ha, read-out: Visual Growth Reduction (%) 14 Days After Application, SETFA

Compound	pest or weed control at 140 g/ha [%]
COC(=O)c1nc(-c2ccc(C#N)c(F)c2)c(F)c(N)c1Cl [Compound 135, methyl 4-amino-3-chloro-6-(4-cyano-3-fluorophenyl)-5-fluoropicolinate]	75 to 84

Same assay, conditions: post-emergence, 336 h, SORVU: grain sorghum (Sorghum vulgare), 70 g ai/ha, read-out: Visual Growth Reduction (%) 14 Days After Application, SORVU

Compound	pest or weed control at 70 g/ha [%]
COC(=O)c1nc(-c2ccc(C#N)c(F)c2)c(F)c(N)c1Cl [Compound 135, methyl 4-amino-3-chloro-6-(4-cyano-3-fluorophenyl)-5-fluoropicolinate]	75 to 84

Same assay, conditions: post-emergence, 336 h, SORVU: grain sorghum (Sorghum vulgare), 140 g ai/ha, read-out: Visual Growth Reduction (%) 14 Days After Application, SORVU

Compound	pest or weed control at 140 g/ha [%]
COC(=O)c1nc(-c2ccc(C#N)c(F)c2)c(F)c(N)c1Cl [Compound 135, methyl 4-amino-3-chloro-6-(4-cyano-3-fluorophenyl)-5-fluoropicolinate]	85 to 94

Same assay, conditions: post-emergence, 336 h, TRZSS (wheat, Triticum aestivum), crop, 70 g ai/ha, read-out: Visual Growth Reduction (%) 14 Days After Application, TRZSS

Compound	pest or weed control at 70 g/ha [%]
COC(=O)c1nc(-c2ccc(C#N)c(F)c2)c(F)c(N)c1Cl [Compound 135, methyl 4-amino-3-chloro-6-(4-cyano-3-fluorophenyl)-5-fluoropicolinate]	30 to 44

Same assay, conditions: post-emergence, 336 h, TRZSS (wheat, Triticum aestivum), crop, 140 g ai/ha, read-out: Visual Growth Reduction (%) 14 Days After Application, TRZSS

Compound	pest or weed control at 140 g/ha [%]
COC(=O)c1nc(-c2ccc(C#N)c(F)c2)c(F)c(N)c1Cl [Compound 135, methyl 4-amino-3-chloro-6-(4-cyano-3-fluorophenyl)-5-fluoropicolinate]	30 to 44

Same assay, conditions: post-emergence, 336 h, ZEAMX: maize, corn (Zea mays), crop, 70 g ai/ha, read-out: Visual Growth Reduction (%) 14 Days After Application, ZEAMX

Compound	pest or weed control at 70 g/ha [%]
COC(=O)c1nc(-c2ccc(C#N)c(F)c2)c(F)c(N)c1Cl [Compound 135, methyl 4-amino-3-chloro-6-(4-cyano-3-fluorophenyl)-5-fluoropicolinate]	75 to 84

Same assay, conditions: post-emergence, 336 h, ZEAMX: maize, corn (Zea mays), crop, 140 g ai/ha, read-out: Visual Growth Reduction (%) 14 Days After Application, ZEAMX

Compound	pest or weed control at 140 g/ha [%]
COC(=O)c1nc(-c2ccc(C#N)c(F)c2)c(F)c(N)c1Cl [Compound 135, methyl 4-amino-3-chloro-6-(4-cyano-3-fluorophenyl)-5-fluoropicolinate]	75 to 84
